The values below come from ChEMBL document CHEMBL1201862, “PubChem BioAssay data set” (2004).

Assay [1] concerns the target Botulinum neurotoxin type F (Clostridium botulinum, UniProt P30996). Briefly: High-throughput multiplex microsphere dose response for inhibitors of toxin protease, specifically Botulinum neurotoxin light chain F protease, compounds from Cherry Pick 02. The class given is functional. The following applies: read-out: EC50_MICROM.
The target in assay [2] is Lethal factor (Bacillus anthracis, UniProt P15917). Put plainly: High-throughput multiplex microsphere dose response for inhibitors of toxin protease, specifically Lethal Factor protease, compounds from Cherry Pick 02. The class given is functional. The following applies: read-out: EC50_MICROM.
Assay [3] addresses Botulinum neurotoxin type A (Clostridium botulinum (strain Hall / ATCC 3502 / NCTC 13319 / Type A), UniProt P0DPI1). Briefly: High-throughput multiplex microsphere dose response for inhibitors of toxin protease, specifically Botulinum neurotoxin light chain A protease, compounds from Cherry Pick 02. Format: functional. The following applies: read-out: EC50_MICROM.
The target of assay [4] is T1, Rac GTPase-activating protein 1 (Homo sapiens, UniProt Q9H0H5).
T1 sequence (Q9H0H5 whole entry): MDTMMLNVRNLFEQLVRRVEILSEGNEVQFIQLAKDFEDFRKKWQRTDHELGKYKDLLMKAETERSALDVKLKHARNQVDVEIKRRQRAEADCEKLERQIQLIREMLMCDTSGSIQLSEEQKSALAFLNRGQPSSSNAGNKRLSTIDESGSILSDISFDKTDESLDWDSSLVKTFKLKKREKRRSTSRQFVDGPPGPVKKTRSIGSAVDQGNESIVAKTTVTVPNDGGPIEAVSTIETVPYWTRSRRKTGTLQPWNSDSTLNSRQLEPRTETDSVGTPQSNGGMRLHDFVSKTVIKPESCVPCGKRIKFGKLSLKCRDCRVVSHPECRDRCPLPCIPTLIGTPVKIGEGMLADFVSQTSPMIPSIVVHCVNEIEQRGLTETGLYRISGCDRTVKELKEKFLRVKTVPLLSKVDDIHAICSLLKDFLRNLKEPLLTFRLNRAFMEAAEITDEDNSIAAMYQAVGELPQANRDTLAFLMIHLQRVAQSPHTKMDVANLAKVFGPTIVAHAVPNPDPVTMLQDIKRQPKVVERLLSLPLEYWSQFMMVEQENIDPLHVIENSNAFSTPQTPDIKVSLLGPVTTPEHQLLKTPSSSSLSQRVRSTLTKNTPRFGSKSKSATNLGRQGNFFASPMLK
Briefly: MgcRacGAP GTPase-activating activity inhibitors, confirmation, biochemical, ADP Hunter fluorescence, primary and confirmatory (AID 624330). The class given is functional.

Assay [5] is described as follows: HeLa cell cytotoxicity, dose response, cytotoxicity control for MgcRacGAP inhibitor project (AID 624300). Format: functional.
Assay [6] concerns the target Nonstructural protein 1 (Influenza A virus, UniProt Q194T2). Format: functional, Influenza A virus (A/California/07/2009(H1N1)).
The target of assay [7] is T2, Histone-lysine N-methyltransferase NSD2 (Homo sapiens, UniProt O96028).
T2 sequence (O96028 whole entry): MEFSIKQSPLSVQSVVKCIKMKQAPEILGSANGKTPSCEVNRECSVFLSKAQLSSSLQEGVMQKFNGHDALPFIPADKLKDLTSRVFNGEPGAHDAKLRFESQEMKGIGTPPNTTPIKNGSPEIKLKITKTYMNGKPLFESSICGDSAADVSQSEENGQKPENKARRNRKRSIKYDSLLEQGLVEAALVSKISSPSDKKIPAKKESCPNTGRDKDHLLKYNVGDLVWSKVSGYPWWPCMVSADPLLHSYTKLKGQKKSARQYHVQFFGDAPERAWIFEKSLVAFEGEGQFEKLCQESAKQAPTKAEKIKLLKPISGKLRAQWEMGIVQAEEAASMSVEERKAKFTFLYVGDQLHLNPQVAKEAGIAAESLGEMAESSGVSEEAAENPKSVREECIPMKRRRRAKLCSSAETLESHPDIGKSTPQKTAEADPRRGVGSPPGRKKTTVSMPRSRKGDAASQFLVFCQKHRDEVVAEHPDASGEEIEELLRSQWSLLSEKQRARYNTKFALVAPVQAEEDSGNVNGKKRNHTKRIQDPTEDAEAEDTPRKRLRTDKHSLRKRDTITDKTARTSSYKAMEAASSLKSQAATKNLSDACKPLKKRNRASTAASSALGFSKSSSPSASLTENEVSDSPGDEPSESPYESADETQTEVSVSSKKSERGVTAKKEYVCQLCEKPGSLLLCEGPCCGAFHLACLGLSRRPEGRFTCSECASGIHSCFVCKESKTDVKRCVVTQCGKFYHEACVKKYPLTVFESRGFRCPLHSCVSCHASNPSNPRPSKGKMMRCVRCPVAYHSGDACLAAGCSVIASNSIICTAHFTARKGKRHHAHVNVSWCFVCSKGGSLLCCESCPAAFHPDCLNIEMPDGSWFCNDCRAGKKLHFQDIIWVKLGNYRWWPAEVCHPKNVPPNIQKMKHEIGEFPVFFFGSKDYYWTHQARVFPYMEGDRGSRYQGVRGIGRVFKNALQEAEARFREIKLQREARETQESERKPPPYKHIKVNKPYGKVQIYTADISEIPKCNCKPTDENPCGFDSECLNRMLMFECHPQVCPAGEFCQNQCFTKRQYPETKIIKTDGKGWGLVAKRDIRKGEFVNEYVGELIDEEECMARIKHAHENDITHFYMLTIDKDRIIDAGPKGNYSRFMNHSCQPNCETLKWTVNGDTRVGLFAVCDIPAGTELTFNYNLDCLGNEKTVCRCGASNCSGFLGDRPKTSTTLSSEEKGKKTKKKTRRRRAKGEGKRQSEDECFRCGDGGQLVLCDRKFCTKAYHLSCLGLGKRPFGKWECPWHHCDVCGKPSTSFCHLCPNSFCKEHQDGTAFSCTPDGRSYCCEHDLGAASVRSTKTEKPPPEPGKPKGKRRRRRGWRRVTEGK
The class given is biochemical.

Assay [8] concerns the target Mitogen-activated protein kinase kinase kinase kinase 4 (Homo sapiens, UniProt O95819). The class given is functional.
Assay [9] concerns the target Homeodomain-interacting protein kinase 2 (Homo sapiens, UniProt Q9H2X6). The class given is functional.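 Note: measured within a kinome-wide kinase profiling panel, HIPK2 being one panel member.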
Assay [10] deals with Interleukin-1 receptor-associated kinase 4 (Homo sapiens, UniProt Q9NWZ3). Format: functional.
Assay [11] concerns the target Cell division cycle 7-related protein kinase (Homo sapiens, UniProt O00311). The class given is functional.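 Note: value obtained from a kinome-wide kinase panel.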
In assay [12] the target is Dual specificity protein kinase CLK4 (Homo sapiens, UniProt Q9HAZ1). The class given is functional.
Assay [13] concerns the target cAMP-dependent protein kinase catalytic subunit alpha (Homo sapiens, UniProt P17612). Format: functional.
Assay [14] has as its target Serine/threonine-protein kinase pim-1 (Homo sapiens, UniProt P11309). Format: functional.
In assay [15] the target is Glycogen synthase kinase-3 beta (Homo sapiens, UniProt P49841). Format: functional.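 Note: value comes from a broad kinome profiling panel, with GSK3B as the panel member.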

Activity calls are given as the source filed them. Bounds are passed on as bounds.

Usually IC50 stands for the concentration at which inhibition is half-maximal. For orientation: CC50 means the concentration that lowers cell viability or growth by half. Usually AC50 stands for the concentration at which the activity in the assay is half-maximal. Broadly, the Ki is a measure of affinity in units of concentration, obtained from inhibition or displacement.

Sequence of Nonstructural protein 1 (Q194T2 whole entry): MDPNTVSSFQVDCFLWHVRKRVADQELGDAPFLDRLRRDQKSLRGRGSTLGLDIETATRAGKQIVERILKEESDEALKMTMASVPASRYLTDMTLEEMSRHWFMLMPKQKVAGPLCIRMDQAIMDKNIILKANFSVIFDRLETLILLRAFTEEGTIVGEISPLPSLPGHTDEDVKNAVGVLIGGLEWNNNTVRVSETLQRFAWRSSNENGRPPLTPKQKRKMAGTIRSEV
Sequence of Interleukin-1 receptor-associated kinase 4 (Q9NWZ3 whole entry): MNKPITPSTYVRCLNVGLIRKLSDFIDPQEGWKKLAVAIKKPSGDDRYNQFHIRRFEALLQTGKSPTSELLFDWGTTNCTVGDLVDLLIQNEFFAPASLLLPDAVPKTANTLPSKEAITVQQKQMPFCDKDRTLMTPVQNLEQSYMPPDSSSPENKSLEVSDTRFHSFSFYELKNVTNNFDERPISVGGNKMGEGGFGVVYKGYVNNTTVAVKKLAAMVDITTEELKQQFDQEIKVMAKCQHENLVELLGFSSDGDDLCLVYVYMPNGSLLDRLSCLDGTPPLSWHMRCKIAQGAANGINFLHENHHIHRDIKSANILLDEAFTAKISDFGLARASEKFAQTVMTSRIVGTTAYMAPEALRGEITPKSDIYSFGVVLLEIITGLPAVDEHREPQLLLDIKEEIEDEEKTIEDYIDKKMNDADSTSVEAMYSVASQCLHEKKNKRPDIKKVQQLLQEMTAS
Sequence of Dual specificity protein kinase CLK4 (Q9HAZ1 whole entry): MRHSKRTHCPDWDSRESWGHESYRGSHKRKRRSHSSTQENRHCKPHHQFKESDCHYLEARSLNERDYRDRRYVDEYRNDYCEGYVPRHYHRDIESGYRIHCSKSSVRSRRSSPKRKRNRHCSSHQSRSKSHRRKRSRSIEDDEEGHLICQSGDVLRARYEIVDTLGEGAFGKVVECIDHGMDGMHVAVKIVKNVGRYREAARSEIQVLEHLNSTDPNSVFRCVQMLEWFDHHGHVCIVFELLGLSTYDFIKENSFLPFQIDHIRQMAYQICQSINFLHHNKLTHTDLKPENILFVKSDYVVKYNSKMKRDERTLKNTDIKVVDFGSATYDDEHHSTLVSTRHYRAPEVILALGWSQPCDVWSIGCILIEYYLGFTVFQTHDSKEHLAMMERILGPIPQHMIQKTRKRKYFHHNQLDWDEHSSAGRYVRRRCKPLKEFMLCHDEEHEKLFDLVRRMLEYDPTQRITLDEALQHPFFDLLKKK
Sequence of Cell division cycle 7-related protein kinase (O00311 whole entry): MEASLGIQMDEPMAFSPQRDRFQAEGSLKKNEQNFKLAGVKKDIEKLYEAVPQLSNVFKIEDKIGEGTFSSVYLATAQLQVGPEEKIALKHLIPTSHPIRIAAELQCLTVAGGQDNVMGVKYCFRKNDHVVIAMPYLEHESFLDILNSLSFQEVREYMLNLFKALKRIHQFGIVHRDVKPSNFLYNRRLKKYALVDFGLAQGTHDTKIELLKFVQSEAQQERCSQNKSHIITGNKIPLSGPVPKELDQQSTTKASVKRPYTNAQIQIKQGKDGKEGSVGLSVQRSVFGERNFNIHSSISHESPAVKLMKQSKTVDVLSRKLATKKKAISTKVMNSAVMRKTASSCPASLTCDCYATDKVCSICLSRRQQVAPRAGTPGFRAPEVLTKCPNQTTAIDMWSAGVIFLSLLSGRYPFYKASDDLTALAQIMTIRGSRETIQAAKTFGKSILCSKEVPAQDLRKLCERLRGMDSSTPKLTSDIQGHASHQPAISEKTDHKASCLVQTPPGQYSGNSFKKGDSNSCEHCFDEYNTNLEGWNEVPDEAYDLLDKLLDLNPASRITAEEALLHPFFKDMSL
Sequence of Homeodomain-interacting protein kinase 2 (Q9H2X6 whole entry): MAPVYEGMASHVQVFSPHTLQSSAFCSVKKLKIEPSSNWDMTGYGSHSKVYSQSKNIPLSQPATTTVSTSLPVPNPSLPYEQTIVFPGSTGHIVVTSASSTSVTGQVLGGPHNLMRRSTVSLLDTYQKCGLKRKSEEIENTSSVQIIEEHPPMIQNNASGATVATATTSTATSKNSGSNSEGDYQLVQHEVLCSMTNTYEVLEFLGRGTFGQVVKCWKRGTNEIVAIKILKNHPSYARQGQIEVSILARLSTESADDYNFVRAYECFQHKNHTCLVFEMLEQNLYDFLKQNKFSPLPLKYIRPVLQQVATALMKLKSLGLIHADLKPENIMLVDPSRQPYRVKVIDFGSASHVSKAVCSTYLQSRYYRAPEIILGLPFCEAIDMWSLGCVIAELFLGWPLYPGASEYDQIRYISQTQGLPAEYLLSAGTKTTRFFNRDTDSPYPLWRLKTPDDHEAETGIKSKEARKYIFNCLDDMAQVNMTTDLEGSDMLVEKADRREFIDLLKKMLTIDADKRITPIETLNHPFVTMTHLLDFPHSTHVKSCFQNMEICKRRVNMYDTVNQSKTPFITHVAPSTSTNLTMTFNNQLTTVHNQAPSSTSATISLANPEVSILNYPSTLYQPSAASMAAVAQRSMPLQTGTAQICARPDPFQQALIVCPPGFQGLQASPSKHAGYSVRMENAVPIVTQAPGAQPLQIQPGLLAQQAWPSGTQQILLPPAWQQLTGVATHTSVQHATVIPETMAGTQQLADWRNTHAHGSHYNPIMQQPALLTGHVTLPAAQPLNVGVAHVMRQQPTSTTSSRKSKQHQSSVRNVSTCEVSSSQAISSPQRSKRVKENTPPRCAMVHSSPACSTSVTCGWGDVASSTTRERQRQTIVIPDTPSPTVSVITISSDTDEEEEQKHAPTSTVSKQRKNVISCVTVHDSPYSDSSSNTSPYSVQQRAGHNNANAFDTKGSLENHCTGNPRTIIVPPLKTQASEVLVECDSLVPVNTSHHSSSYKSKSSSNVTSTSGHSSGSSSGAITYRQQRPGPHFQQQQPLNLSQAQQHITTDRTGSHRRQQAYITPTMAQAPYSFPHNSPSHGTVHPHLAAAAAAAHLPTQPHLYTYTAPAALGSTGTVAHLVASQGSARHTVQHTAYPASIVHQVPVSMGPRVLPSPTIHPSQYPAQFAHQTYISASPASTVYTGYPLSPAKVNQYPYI
Sequence of Serine/threonine-protein kinase pim-1 (P11309 whole entry): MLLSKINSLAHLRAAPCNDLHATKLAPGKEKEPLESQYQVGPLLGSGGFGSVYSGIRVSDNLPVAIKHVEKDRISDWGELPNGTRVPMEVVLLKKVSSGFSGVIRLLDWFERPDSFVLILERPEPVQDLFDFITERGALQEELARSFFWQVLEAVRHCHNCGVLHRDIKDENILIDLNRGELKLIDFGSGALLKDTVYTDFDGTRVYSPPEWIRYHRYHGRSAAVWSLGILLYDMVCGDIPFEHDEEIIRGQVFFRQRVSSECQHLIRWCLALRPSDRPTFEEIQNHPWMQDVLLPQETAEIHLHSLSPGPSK
Sequence of Lethal factor (P15917 whole entry): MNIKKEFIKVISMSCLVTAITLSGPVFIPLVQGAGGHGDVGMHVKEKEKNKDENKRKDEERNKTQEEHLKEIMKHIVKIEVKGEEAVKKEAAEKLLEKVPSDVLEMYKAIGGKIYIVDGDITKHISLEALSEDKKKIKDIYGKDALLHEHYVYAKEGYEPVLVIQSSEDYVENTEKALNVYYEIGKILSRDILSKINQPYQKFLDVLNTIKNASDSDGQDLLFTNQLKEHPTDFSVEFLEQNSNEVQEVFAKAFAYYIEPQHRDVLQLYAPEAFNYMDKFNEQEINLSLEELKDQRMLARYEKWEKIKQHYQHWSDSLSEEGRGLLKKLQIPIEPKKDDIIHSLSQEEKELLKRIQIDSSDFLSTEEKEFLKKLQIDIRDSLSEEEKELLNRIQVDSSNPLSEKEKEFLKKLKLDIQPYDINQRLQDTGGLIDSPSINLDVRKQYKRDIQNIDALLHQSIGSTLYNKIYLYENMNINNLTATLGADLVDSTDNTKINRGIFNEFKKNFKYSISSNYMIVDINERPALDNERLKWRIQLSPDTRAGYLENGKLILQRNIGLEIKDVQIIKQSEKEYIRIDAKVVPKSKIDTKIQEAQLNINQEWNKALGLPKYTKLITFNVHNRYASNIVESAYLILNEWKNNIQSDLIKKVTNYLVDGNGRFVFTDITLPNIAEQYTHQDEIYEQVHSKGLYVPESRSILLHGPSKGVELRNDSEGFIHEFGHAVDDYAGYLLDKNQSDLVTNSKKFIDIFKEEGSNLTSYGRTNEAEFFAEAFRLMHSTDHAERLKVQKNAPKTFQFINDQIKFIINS
Sequence of Botulinum neurotoxin type A (P0DPI1 2-448 limits assumed): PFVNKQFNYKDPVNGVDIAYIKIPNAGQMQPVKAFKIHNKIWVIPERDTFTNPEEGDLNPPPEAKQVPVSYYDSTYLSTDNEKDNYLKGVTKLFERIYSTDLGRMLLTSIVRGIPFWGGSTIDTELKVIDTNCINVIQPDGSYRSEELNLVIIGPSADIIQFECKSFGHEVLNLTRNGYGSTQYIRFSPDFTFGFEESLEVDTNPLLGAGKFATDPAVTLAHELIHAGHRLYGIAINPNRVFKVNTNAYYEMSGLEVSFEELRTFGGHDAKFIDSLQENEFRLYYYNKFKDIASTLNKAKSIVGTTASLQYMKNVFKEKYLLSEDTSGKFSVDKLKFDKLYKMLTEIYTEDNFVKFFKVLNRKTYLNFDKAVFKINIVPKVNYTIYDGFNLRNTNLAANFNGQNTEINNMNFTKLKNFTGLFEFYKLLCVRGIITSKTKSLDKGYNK
Sequence of Botulinum neurotoxin type F (P30996 1-436 limits assumed): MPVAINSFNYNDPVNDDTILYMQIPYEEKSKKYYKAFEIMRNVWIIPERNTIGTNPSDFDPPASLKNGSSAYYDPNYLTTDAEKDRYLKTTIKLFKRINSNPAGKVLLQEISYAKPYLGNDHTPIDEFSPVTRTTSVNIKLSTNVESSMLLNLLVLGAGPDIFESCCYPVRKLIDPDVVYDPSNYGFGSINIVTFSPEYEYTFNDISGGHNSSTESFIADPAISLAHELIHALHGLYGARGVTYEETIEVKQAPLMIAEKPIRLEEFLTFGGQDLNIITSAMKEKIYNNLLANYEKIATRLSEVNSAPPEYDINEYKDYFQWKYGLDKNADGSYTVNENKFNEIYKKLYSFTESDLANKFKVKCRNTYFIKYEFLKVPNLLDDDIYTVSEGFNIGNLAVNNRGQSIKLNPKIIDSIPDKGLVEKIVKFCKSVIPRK

On to `CN(C)c1ccc(/C=C2/C[N+](C)(C)C/C(=C/c3ccc(N(C)C)cc3)C2=O)cc1`, for which the EC50 in assay [1] was > 20000 nM (inactive); in assay [2], 600 nM (active); in assay [3] it was 1600 nM (active). Also, the results for the IC50 in assay [4] and in assay [6] were 82900 nM (active) and 6590 nM (active), respectively. Also, the cytotoxic concentration (CC50) in assay [5] was 100000 nM (active). Moreover, in [7], the half-maximal activity concentration (AC50) is 11900 nM (active).
For the compound `COCCN(CCOC)c1cc(-c2c[nH]c3ncccc23)cc(Cl)n1`, the inhibitory constant (Ki) in assay [8] is 20 nM (active); in assay [9] it was 251 nM (active); in assay [10], 2510 nM (active); in [11], 10 nM (active); in assay [12], 10 nM (active); in assay [13] it was 501 nM (active). Besides, the results for the Ki in [14] and in assay [15] were 1260 nM (active) and 1000 nM (active), respectively.
